Measurements taken from patent US20220192955A1, “AZOXYSTROBIN EFFICACY IN SCALP HEALTH” (The Procter & Gamble Company, priority 2020, published 2022).
Marks after values point to notes of the source that are not given here.

How the values were obtained:
[1] = tested on: Malassezia furfur (CBS 7982); test: In vitro evaluation of antifungal potency (MIC); format: cell-based
Procedure: Malassezia furfur (CBS 7982) is grown for approximately 24 hours in a 250 ml vent cap polycarbonate Erlenmeyer flask containing approximately 100 ml of mDixon medium and 5 ml of a fully grown M. furfur culture prepared using the same conditions as described. The cells are diluted by mixing 2.5 ml of the 24 hour-old culture per 50 ml of mDixon medium. A Versette robot (ThermoFisher Scientific) is used to transfer 292.5 μl of the dilute cells into each well of a Beckman 267007 polypropylene round bottom deep well plate. All compounds are sourced from Sigma Aldrich (St. Louis, Mo.) and prepared as 10 mg/ml in DMSO. A semipermeable aeraseal membrane is applied to the plate which is then be covered with water-soaked cotton batting. The samples are be shaken at 31° C. on a Heidolph Titramax 100 shaker at 1500 rpm for approximately 72 hours. The plates are shaken at 1250 rpm on an Eppendorf MixMate shaker to disperse the cells before transferring 200 μl to a Corning 3596 polystyrene plate. The samples are shaken again at 950 rpm on a MixMate shaker before the absorbance at 600 nm is read using a Molecular Devices SpectraMax plate reader.

S100A12 = test: Scalp tape strip S100A12 protein; format: in vivo, human
Procedure: (§1) Subjects are enrolled in a double-blind, randomized study for all test groups and have Baseline and Week 3 measurements of scalp health taken for flaking, itch and scalp health endpoints. Subjects take home a test product(s) and are instructed on use of test products throughout the study. Test products are solubilized in a hydroalcoholic leave-on formulation. Azoxystrobin raw material is sourced from AK Scientific Inc. (Union City, Calif.) as >97% pure. Azoxystrobin scalp treatment is prepared from a slurry of azoxystrobin in ethanol that is formulated to 0.1% (w/v) in a base chassis of 50% ethanol, 0.35% Ultrez 21 (rheology modifier), 0.05% neutrol TE and water (q.s.). […] Biomarkers of scalp health, including biomarkers of inflammation, itch, oxidative stress and barrier integrity are assessed by non-invasive tape strip sampling of the scalp surface to determine therapeutic resolution. All biomarkers are analyzed from D-Squame® scalp tape samples that are collected from the scalp of subjects before and after scalp treatment with either azoxystrobin or vehicle (Baseline, and Week 3 respectively). These are extracted and analyzed according to published methods (International Journal of Dermatology 2011, 50, 102-113, incorporated by reference herein). […] S100A12 protein is analyzed to determine the impact of scalp treatment on active inflammatory disease. […]

human serum albumin = test: Scalp tape strip barrier integrity: human serum albumin; format: in vivo
Procedure: Subjects are enrolled in a double-blind, randomized study for all test groups and have Baseline and Week 3 measurements of scalp health taken for flaking, itch and scalp health endpoints. Subjects take home a test product(s) and are instructed on use of test products throughout the study. Test products are solubilized in a hydroalcoholic leave-on formulation. […] Azoxystrobin scalp treatment is prepared from a slurry of azoxystrobin in ethanol that is formulated to 0.1% (w/v) in a base chassis of 50% ethanol, 0.35% Ultrez 21 (rheology modifier), 0.05% neutrol TE and water (q.s.). Vehicle scalp treatment is prepared similarly without the addition of azoxystrobin raw material. Subjects apply either azoxystrobin or vehicle scalp treatments daily for 3 weeks. […] All biomarkers are analyzed from D-Squame® scalp tape samples that are collected from the scalp of subjects before and after scalp treatment with either azoxystrobin or vehicle (Baseline, and Week 3 respectively). […] Data analysis is conducted by standard statistical methods and calculations. […] Biochemical markers of skin/scalp barrier integrity are analyzed to evaluate improvements on barrier health. […] Human skin analytes (keratin 1, keratin 10, human serum albumin) are simultaneously quantified using a 3-plea Human Skin Panel LINCOplex Kit (Millipore Corp.). Soluble protein is measured using the BCA™ Protein Assay Kit. […]

keratin 1, keratin 10 = test: Scalp tape strip barrier integrity: keratins 1 and 10; format: in vivo, human
Procedure: as §1, with “Biochemical markers of skin/scalp barrier integrity are” for “S100A12 protein is”, “evaluate improvements” for “determine the impact of scalp treatment”, “barrier health.” for “active inflammatory disease.”

[2] = cited from earlier work
[3] = 0.1% leave-on daily, Week 3, scalp tape strips

Structure (SMILES): CO/C=C(/C(=O)OC)c1ccccc1Oc1cc(Oc2ccccc2C#N)ncn1 [Azoxystrobin]
- MIC value, Malassezia furfur ([1]; M. furfur CBS 7982, mDixon medium, 31° C., approximately 72 hours, absorbance at 600 nm): 0.39-0.49 ppm
- times more potent than pyraclostrobin (MIC) ([1]; Malassezia furfur MIC ratio): 4 times
- times more potent than zinc pyrithione (MIC) ([1]; Malassezia furfur MIC ratio): 8 times
- S100A12 Results % Change from Baseline (S100A12; [3]): −71.2* %
- reduction of S100A12 levels (S100A12; compared to a placebo control): 71%
- Human Serum Albumin % Change from Baseline (human serum albumin; [3]): −54.1* %
- reduction in human serum albumin (HSA) changed from a baseline (human serum albumin; 3 weeks of treatment): 54%
- Keratins-1,10 % Change from Baseline (keratin 1, keratin 10; [3]): +86.0* %
- increase in keratins 1 and 10 (keratin 1, keratin 10; compared to a placebo control): 86%
- solubility in water [2]: low solubility in water
